Results from patent publication US12617777B2, “GPR84 antagonists and uses thereof” (Liminal BioSciences Limited, priority 2021, dated 2026).

Biological target: T1, human GPR84 receptor (Homo sapiens, UniProt Q9NQS5)
T1 construct: host or cells: HEK293, transient transfection
Assay: Gαi biosensor BRET assay in HEK293 cells (antagonism of ZQ-16)
Assay type: cell-based
Conditions: for inhibition at 10 µM: HEK293, single concentration 10 μM (designated F); for IC50: HEK293 cells, antagonism of 200 nmol/L ZQ-16; for inhibition at 2 µM: HEK293, single concentration 2 μM (designated A); for inhibition at 5 µM: HEK293, single concentration 5 μM (designated D)
From the text: Background—The following assays can be used for determination of GPR84 activation in living HEK293 cells. The Gai BRET biosensor (Gagnon et al., 2018; Gales et al., 2006. Nat StructMol Biol. 13, 778-86; Saulieres et al., 2012. Nat Chem Biol. 8, 622-30) allows to directly monitor GPR84-mediated activation of Gai. The Gai biosensor consists of a Rluc8-tagged Gαi2 subunit, a GFP10-tagged Gγ2 subunit, and an untagged Gβ1. Agonist stimulation and GPR84 activation triggers a physical separation between the RLuc8-Gαi donor and the GFP10-Gγ2 acceptor, resulting in a decrease in BRET signal whose amplitude is correlated to ligand efficacy (Gales et al., 2006). Moreover, signaling functions of GPCRs are tightly regulated by endocytosis, the targeting of receptors to endosomes and their sorting to lysosomes or recycling to the plasma membrane. The early endosomes (EEs) trafficking assay (Namkung et al., 2016. Nat Commun. 7, 12178) uses Rluc8-tagged GPR84 and Renilla GFP (rGFP) attached to the FYVE domain from human endofin/zinc finger FYVE domain-containing protein 16, which binds phosphatidylinositol 3-phosphate in EEs. Agonist stimulation of GPR84-Rluc8 leads to trafficking of the receptor to EEs, and ensuing increase of the donor concentration relative to the rGFP-FYVE acceptor anchored in the same cellular compartment, and thus results in an increase in BRET signal.
Plasmids—The cDNA clones for human GPR84 receptor, human Gai2, Gp1, and Gy2 were obtained from the cDNA Resource Center (www.cdna.org). GFP10 (F64L, S147P, S202F and H231L variant of Aequorea victoria Green Fluorescent Protein) gBlocks gene fragments (Integrated DNA Technologies, IA) and linker were inserted in frame at the N-terminus of human Gγ2. Rluc8 (A55T, C124A, S130A, K136R, A143M, M185V, M253L, and S287L variant of the Renilla renformis luciferase) gBlocks gene fragment was inserted with linkers in frame in between residues 91 and 92 of Gai2 or at the C-terminus of GPR84. The FYVE domain from human endofin (residues Q739 to K806) attached in frame at the C terminus of a humanized Renilla GFP (rGFP), were synthesized as gBlocks gene fragments.
Bioluminescence Resonance Energy Transfer (BRET) Measurement—HEK293 cells were transfected with GPR84-Rluc8 and rGFP-FYVE for the EEs trafficking biosensor or with GPR84, Gαi2-Rluc8, GFP10-Gγ2, and Gβ1 for the Gαi biosensor. The following day, transiently transfected cells were seeded in 96-well white clear bottom microplates coated with poly-D-lysine and left in culture for 24 hours. Cells were washed once with Tyrode's buffer (140 mmol/L NaCl, 1 mmol/L CaCl2, 2.7 mmol/L KCl, 0.49 mmol/L MgCl2, 0.37 mmol/L NaH2PO4, 5.6 mmol/L glucose, 12 mmol/L NaHCO3, and 25 mmol/L HEPES, pH 7.5) before performing assays in Tyrode's buffer. Test compounds were incubated with cells for 5 (Gαi) or 15 (EEs) minutes at 37° C. before addition of 200 nmol/L of the GPR84 agonist ZQ-16 (2-(Hexylthio)-6-hydroxy-4(3H)-pyrimidinone) for 5 minutes at room temperature (Gαi) or 30 minutes at 37° C. (EEs). The Rluc8 substrate coelenterazine 400A (Prolume, Lakeside, AZ) was added at a final concentration of 5 μmol/L and BRET readings were collected using an Infinite M1000 microplate reader (Tecan, Morrisville, NC). BRET^2 readings between Rluc8 and GFP10 or rGFP were collected by sequential integration of the signals detected in the 370 to 450 nm (Rluc8) and 510 to 540 nm (GFP10, rGFP) windows. The BRET signal was calculated as the ratio of light emitted by acceptor (GFP10, rGFP) over the light emitted by donor (Rluc8). The values were corrected to net BRET by subtracting the background BRET signal obtained in cells transfected with Rluc8 constructs alone. Ligand-promoted net BRET values were calculated by subtracting vehicle-induced net BRET from ligand-induced net BRET.

T1 sequence (Q9NQS5 whole entry): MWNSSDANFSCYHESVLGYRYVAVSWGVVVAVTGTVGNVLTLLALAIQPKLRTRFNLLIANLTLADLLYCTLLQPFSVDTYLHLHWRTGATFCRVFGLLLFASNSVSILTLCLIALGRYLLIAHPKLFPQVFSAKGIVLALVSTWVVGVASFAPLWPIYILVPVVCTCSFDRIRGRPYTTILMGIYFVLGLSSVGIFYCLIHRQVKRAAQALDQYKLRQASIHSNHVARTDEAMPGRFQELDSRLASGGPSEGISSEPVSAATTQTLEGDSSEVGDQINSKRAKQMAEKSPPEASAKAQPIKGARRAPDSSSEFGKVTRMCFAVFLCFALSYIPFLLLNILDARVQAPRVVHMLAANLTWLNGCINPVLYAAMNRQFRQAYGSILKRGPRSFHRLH

| inhibition at 10 µM | IC50 | SMILES | further results |
| --- | --- | --- | --- |
| 50 to 75% | 300 to 1000 nM | CCN(CC)c1cc(N2CC(C)(CO)C2)ccc1-c1cn(CC2OCC3(CC3)CO2)nn1 [Compound I-800] | – |
| ≤ 25% | – | CCc1cc(C#CCNC2CC2)ccc1-c1cn(CC2OCC(C)(C)CO2)nn1 [Compound I-851] | – |
| – | ≤ 300 nM | CN(C)c1cc(N2CC(C)(CO)C2)c(F)cc1-c1cn(CC2OCC3(CC3)CO2)nn1 [Compound I-784] | – |
| 50 to 75% | – | Cc1cc(N2CCN(Cc3ccncn3)CC2)ccc1-c1cn(CC2CCCCO2)nn1 (centres unmarked) [Compound I-565] | – |
| > 75% | 300 to 1000 nM | COC(c1cn(CC2CCCCO2)nn1)c1c(C)ccc(C#CC2CC2)c1F (centres unmarked) [Compound I-656] | – |
| > 75% | – | Cc1c(C#CC2CC2)cccc1C(C)c1cn(C[C@H]2CCCCO2)nn1 (some centres unmarked) [Compound I-741] | – |
| – | ≤ 300 nM | Cc1cc(C#CCN2CCN(c3ccccc3)CC2)ccc1-c1cn(CC2CCCCO2)nn1 (centres unmarked) [Compound I-867] | – |
| 50 to 75% | – | Cc1cc(C#CC2COC2)ccc1-c1cn(CC2CCCCO2)nn1 (centres unmarked) [Compound I-576] | – |
| > 75% | ≤ 300 nM | CC1(C)COC(Cn2cc(-c3ncc(C#CC4CC4)cc3CC(F)(F)F)nn2)OC1 [Compound I-750] | – |
| > 75% | 1000 to 3000 nM | CCc1cc(C#CCNC(=O)OC)ccc1-c1cn(CC2CCCCO2)nn1 (centres unmarked) [Compound I-586] | – |
| > 75% | 1000 to 3000 nM | Cc1cc(N2CC(C)(C)C2)c(C)cc1-c1cn(CC2OCC(C)(C)CO2)nn1 [Compound I-685] | – |
| – | ≤ 300 nM | CC1(C)COC(Cn2cc(-c3ncc(C#CC4CC4)cc3OC3CC3)nn2)OC1 [Compound I-702] | inhibition at 2 µM: > 75% |
| > 75% | 1000 to 3000 nM | CN(C)c1cc(C#CC(C)(C)O)ccc1-c1cn(CC2OCC(C)(C)CO2)nn1 [Compound I-719] | – |
| 50 to 75% | – | CNC1(C)CN(c2ccc(-c3cn(CC4CCCCO4)nn3)c(C)c2)C1 (centres unmarked) [Compound I-506] | – |
| – | ≤ 300 nM | CC1(C)COC(Cn2cc(-c3ncc(C#CCN4CC(C)(C)C4)cc3OC3CC3)nn2)OC1 [Compound I-709] | inhibition at 2 µM: > 75% |
| > 75% | – | Cc1cc(N2CC3(CN(c4cccnc4)C3)C2)ccc1-c1cn(CC2OCC(C)(C)CO2)nn1 [Compound I-684] | – |
| ≤ 25% | – | Cc1cc(C#CCN2CC(C)(C)C2)cnc1-c1nnn(CC2OCC(C)(C)CO2)n1 [Compound I-835] | – |
| 25 to 50% | ≤ 300 nM | Cc1cc(N2CCN(Cc3ccccn3)CC2)ccc1-c1cn(CC2OCC3(CC3)CO2)cn1 [Compound I-795] | – |
| – | ≤ 300 nM | FC(F)(F)Cc1cc(C#CC2CC2)cnc1-c1cn(C[C@H]2CCCCO2)nn1 [Compound I-822] | inhibition at 2 µM: > 75% |
| ≤ 25% | – | Cc1cc(C#CCN2CC(C)(C)C2)cnc1-c1cn(CCc2ncccn2)nn1 [Compound I-717] | – |
| – | ≤ 300 nM | CC1(C)CN(CC#Cc2cnc(-c3cn(CC4OCC5(CC5)CO4)nn3)c(OC3CC3)c2)C1 [Compound I-794] | inhibition at 2 µM: > 75% |
| ≤ 25% | – | Cc1cc(N2CCN(c3cccnc3)CC2)ccc1-c1cn(CC2CCCCO2)nn1 (centres unmarked) [Compound I-545] | – |

The next lines start with the molecule.

| SMILES | inhibition at 10 µM | IC50 | further results |
| --- | --- | --- | --- |
| Cc1cc(C#CC2CC2)ccc1-c1cn(CC2CCCCO2)cn1 (centres unmarked) [Compound I-341] | 50 to 75% | – | – |
| Cc1cc(Cl)c(N2CC(C)(C)C2)cc1-c1cn(C[C@H]2CCCCO2)nn1 [Compound I-431] | ≤ 25% | – | – |
| Cc1cc(C#CC2CC2)ccc1-c1cn(CC2(C)CCCCO2)nn1 (centres unmarked) [Compound I-554] | – | – | inhibition at 2 µM: > 75% |
| Cc1cc(N2CC(C)(C)C2)ccc1-c1cn(C[C@H]2CCCCO2)nn1 [Compound I-253] | – | ≤ 300 nM | inhibition at 3.3 µM (HEK293, single concentration 3.3 μM (designated C)): > 75% |
| Cc1c(-c2ccc(C#CC3CC3)cc2)nnn1CC1CCCO1 (centres unmarked) [Compound I-115] | ≤ 25% | – | – |
| Cc1cc(C#CC2CC2)nnc1-c1cn(CC2CCCCO2)nn1 (centres unmarked) [Compound I-433] | ≤ 25% | – | – |
| Cc1ccc(C#CC2CC2)cc1Cc1cn(CC2CC(C)(C)CO2)nn1 (centres unmarked) [Compound I-643] | – | – | inhibition at 2 µM: 50 to 75% |
| Cc1cc(CCCCN2CCCCC2)ccc1-c1cn(CC2CCCCO2)nn1 (centres unmarked) [Compound I-270] | ≤ 25% | – | – |
| Cc1cc(N2CCC3(CC2)CN(Cc2ccccc2)C3)ccc1-c1cn(CC2CCCCO2)nn1 (centres unmarked) [Compound I-173] | ≤ 25% | – | – |
| N#CCc1cc(C#CC2CC2)ccc1-c1cn(CC2CCCCO2)nn1 (centres unmarked) [Compound I-217] | 25 to 50% | – | – |
| COC(C)Cn1cc(-c2ccc(C#CCNc3ccccc3)cc2C)nn1 (centres unmarked) [Compound I-162] | 25 to 50% | – | – |
| CC(c1cccc(C#CCN2CC(C)(C)C2)c1)c1cn(CC2CCCCO2)nn1 (centres unmarked) [Compound I-425] | 25 to 50% | – | – |
| Cc1cc(C#CC2CC2)sc1-c1cn(CC2CCCCO2)nn1 (centres unmarked) [Compound I-116] | 25 to 50% | – | – |
| Cc1ccc(-c2ccc(C3CN(CC4CCCCO4)C(=O)O3)c(C)c2)cn1 (centres unmarked) [Compound I-406, 5-(2-methyl-4-(6-methylpyridin-3-yl)phenyl)-3-((tetrahydro-2H-pyran-2-yl)methyl)oxazolidin-2-one] | ≤ 25% | – | – |
| C(#CC1CC1)c1ccc(-c2cn(C[C@H]3CCCCO3)nn2)cc1 [Compound I-24] | – | > 3000 nM | inhibition at 25 µM (HEK293, single concentration 25 μM (designated I)): > 75% |
| COc1cc(C)c(-c2cn(CC3CCCCO3)nn2)cc1OC (centres unmarked) [Compound I-257] | ≤ 25% | – | – |
| CNC1CCN(c2ccc(-c3cn(CC4CCCCO4)nn3)c(C)c2)CC1 (centres unmarked) [Compound I-128] | ≤ 25% | – | – |
| CCc1c(C#CC2CC2)cccc1Cc1cn(CC2CCCCO2)nn1 (centres unmarked) [Compound I-476] | – | – | inhibition at 2 µM: ≤ 25% |
| COc1ccc(C#CC2CC2)cc1-c1cn(CC2CCCCO2)nn1 (centres unmarked) [Compound I-125] | ≤ 25% | – | – |
| Cc1cc(C#CC2CC2)ccc1-c1cn(Cc2nccs2)nn1 [Compound I-314] | 25 to 50% | – | – |
| CC(=O)N1CCN(c2ccc(-c3cn(CC4CCCCO4)nn3)c(C)c2)CC1 (centres unmarked) [Compound I-112] | ≤ 25% | – | – |
| Cc1cc(C#CC2CC2)ccc1-c1cn(CC2CCCCS2(=O)=O)nn1 (centres unmarked) [Compound I-248] | ≤ 25% | – | – |
| Cc1cc(C#CC2CC2)ccc1-c1cn(CCOC(C)(C)C)nn1 [Compound I-98] | ≤ 25% | – | – |
| CCc1ccc(C#CC2CC2)cc1-c1cn(CC2CCCCO2)nn1 (centres unmarked) [Compound I-160] | > 75% | > 3000 nM | – |
| Cc1cc(C#CCNc2ccccc2)ccc1-c1cn(CCC2CCCCO2)nn1 (centres unmarked) [Compound I-306] | 25 to 50% | – | – |
| CC(C)Oc1cc(C#CC2CC2)cnc1-c1cn(Cc2ncccn2)nn1 [Compound I-502] | > 75% | 1000 to 3000 nM | – |
| Cc1cc(C#CC2CC2)ccc1-c1ccn(CC2CCCCO2)n1 (centres unmarked) [Compound I-325] | ≤ 25% | – | – |
| C(#CC1CC1)c1ccc(-c2cn(CC3CCCCO3)cn2)cc1 (centres unmarked) [Compound I-333] | – | – | inhibition at 15 µM (HEK293, single concentration 15 μM (designated H)): ≤ 25% |
| Cc1cc(C#CC2CC2)ccc1-c1cn(C[C@H]2CCCCO2)nn1 [Compound I-175] | – | 1000 to 3000 nM | inhibition at 5 µM: 50 to 75% |
| Cc1c(-c2ccc(OCc3ccccc3)cc2)nnn1CC1CCCCO1 (centres unmarked) [Compound I-46] | – | – | inhibition at 5 µM: ≤ 25% |
